# Results from patent US8703716B2, “Maternal sialic acid supplementation” (DSM IP Assets B.V., priority 2010, dated 2014).
# Assays:
# hippocampal cultures = assay: Ex vivo neurite extension (Map2a staining) in hippocampal cultures from offspring of NANA-supplemented dams; design: species or system Long-Evans rats; conditions: 6 days culture
# From the text: (§1) To determine the effects of supplementing maternal diets with sialic acid (n-acetylneuraminic acid; NANA) on the brain development of the offspring, forty (40) pregnant Long-Evans rats were placed on four (4) diets (10 dams per diet) that differed in their administration of sialic acid (Nacalai, San Diego, Calif.). All animals were started on the diets on the 4th day after being mated (gestational day 4).
# […] These animals were then placed on a base diet after the offspring were born. Conversely, dams on the lactational diet (“fact”) were placed on the base diet during gestation but received NANA (200 mg/kg/d) through the diet during lactation. […]
# To determine the effects of maternal NANA supplementation on the brain development of offspring, neurite extension was measured in hippocampal cultures made from p0 pups described in FIG. 2. […] The number of cells in each culture was assessed by staining with 4′,6-diamidino-2-phenylindole (DAPI).
# The percent area of Map2a staining was determined by computerized counting of all Map2a positive pixels in each image (5 random fields for each of 9-10 cultures per group; 1 culture per animal). […] A two-tailed, unpaired students t-test was used to compare the two groups, and the test detected a significant difference between the supplemented group and the control group (**, p<0.01). […]
# [1] = NANA and Neu5Gc concentrations in cerebrospinal fluid after a single oral NANA dose; type: in vivo, rat; conditions: single oral dose NANA 200 mg/kg
# Protocol: To assess whether NANA is bioavailable to the brain in its native form or whether NANA is processed on its way across the blood-brain barrier, the levels of NANA and one of its potential metabolites were measured in rat cerebrospinal fluid (CSF). The animals' diets were first cleared of NANA by placing them on NANA-free diets for one week. The animals were then given a single, oral dose of NANA (200 mg/kg), and the CSF of each animal was sampled at 0, 0.25, 1, 2, 4, and 6 hours after dosing. The concentrations of NANA and Neu5Gc in the CSF were then assessed by high-pressure liquid chromatography coupled with fluorescence detection methods and quantitation standards.
# [2] = system: myelin basic protein (MBP) expression in the developing whole brain; assay: MBP expression by western blot of whole brain lysates of offspring after maternal NANA supplementation; type: in vivo, Long-Evans rats
# From the text: as §1
# Dams placed on the gestational diet (“Gest”) received NANA (200 milligrams (mg) per kilogram (kg) body weight per day (d)) only during gestation. These animals were then placed on a base diet after the offspring were born. Conversely, dams on the lactational diet (“fact”) were placed on the base diet during gestation but received NANA (200 mg/kg/d) through the diet during lactation. Dams receiving NANA (200 mg/kg/d) through the diet throughout gestation and lactation were known as the “G+L” group.
# After birth, the pups born to each diet group were crossfostered within their respective group to control for any differences in maternal care. The litters were then culled to 10 pups per dam to prevent nutritional differences caused by lack of access to the dam. The study was also designed to allow for the use of 5 pups at each endpoint (N=5) while keeping the litter size equal across all groups. Pups were taken at postnatal day 1 (p1) to determine potential differences between gestational supplementation and lactational supplementation of the maternal diet. […] Pups were also taken at p8 because it served as a midway timepoint and because the primary biomarker used cannot be detected until this day in rat development.
# To determine the effects of maternal NANA supplementation on the brain development of offspring, MBP expression was measured by western blot analysis of whole brain lysates that were harvested from pups at postnatal days 0, 8, and 16 described in FIG. 2. […]
# The graphs represent the average intensity of MBP expression normalized by the corresponding actin signal in relative fluorescence units (Normalized R.F.U.).
# [3] = system: thickness of MBP expression in white matter of p16 pup brain; assay: Thickness of MBP expression in offspring brain slices by MBP immunohistochemistry and confocal laser microscopy; type: in vivo, Long-Evans rats; conditions: p16 pups
# From the text: To determine the effects of supplementing maternal diets with sialic acid (n-acetylneuraminic acid; NANA) on the brain development of the offspring, forty (40) pregnant Long-Evans rats were placed on four (4) diets (10 dams per diet) that differed in their administration of sialic acid (Nacalai, San Diego, Calif.). All animals were started on the diets on the 4th day after being mated (gestational day 4). […]
# (§2) FIGS. 3A and 3B show the maternal NANA supplementation protocol for experiments testing additional doses of NANA administered during gestation (FIG. 3A) and lactation (FIG. 3B).
# To determine the effects of maternal NANA supplementation on the brain development of offspring, assessment of the CC and LOT was performed by taking thin slices of the p16 pup brain described in FIG. 2, staining the slices with MBP immunohistochemistry, and measuring the areas of interest with confocal laser microscopy. […] The locations of the LOT and regions associated with the anterior commissure (AC) are also illustrated in FIG. 7A. […]
# To further assess the effects of maternal NANA supplementation during lactation on the brain development of offspring, assessment of the corpus callosum (CC) and lateral olfactory tract (LOT) was performed by taking thin slices of the p16 pup brain (LacDR p16) described in FIG. 3B, staining the slices with MBP immunohistochemistry, and quantitating the areas of interest with confocal laser microscopy as described in Example 2. Maternal supplementation with NANA at doses of 25 mg/kg/d, 50 mg/kg/d, 100 mg/kg/d and 200 mg/kg/d was tested.
# To further assess the effects of maternal NANA supplementation during lactation on the brain development of offspring, assessment of the motor pyramids and medial lemniscus was performed by taking thin slices of the p16 pup brain (LacDR p16) described in FIG. 3B, staining the slices with MBP immunohistochemistry, and quantitating the areas of interest with confocal laser microscopy as described in Example 2. Maternal supplementation with NANA at doses of 25 mg/kg/d, 50 mg/kg/d, 100 mg/kg/d and 200 mg/kg/d was tested.
# [4] = system: MBP expression in the cerebellum; assay: MBP expression by western blot of offspring cerebellum after maternal NANA supplementation during lactation; type: in vivo, rat
# Protocol: as §2
# To further assess the effects of maternal NANA supplementation during lactation on the brain development of offspring, MBP expression was measured by western blot analysis of cerebellum that was harvested from pups at postnatal days 0, 8, and 16 described in FIG. 3B. As described in Example 2, the blots were probed with an antibody for MBP as described in Example 2 that recognizes the 18 kilodalton form (18 kD MBP) and 21 kilodalton form (21 kD MBP) and an antibody for β-actin as a protein loading control. Quantitation of MBP expression performed with densitometry of the bands in each lane, and each lane represented an individual animal as described in Example 2.
# The graphs in FIGS. 12A and 12B represent the average intensity of MBP expression normalized by the corresponding actin signal in relative fluorescence units (Normalized R.F.U.).
# [5] = mice, dams and pups lacking the gene to produce Neu5Gc; cited from earlier work
# [6] = maternal NANA 25-200 mg/kg/d during gestation
# [7] = maternal NANA 25-200 mg/kg/d during lactation, p<0.01 / p<0.001
# [8] = maternal NANA during lactation, at certain doses tested, ANOVA p<0.001
structure (smiles),measurement,setting,value
"CC(=O)N[C@H]1[C@H]([C@H](O)[C@H](O)CO)OC(O)(C(=O)O)C[C@@H]1O (some centres unmarked) [NANA, N-acetylneuraminic acid]",percent area of Map2a staining per neuron (neurite extension),"hippocampal cultures; dams fed NANA 25, 50, 100, 200 mg/kg/d during gestation, p<0.01 / p<0.001",significantly greater
same,percent area of Map2a staining per neuron (neurite extension),"hippocampal cultures; p0 pups, dams fed NANA 200 mg/kg/d during gestation, p<0.01 vs control",significantly greater
same,time at which CSF NANA returned to baseline values,[1]; rat CSF,≤ 1 h
same,time of peak of native NANA in CSF after dosing,[1]; rat CSF,15 min
same,blood-brain barrier crossing of native NANA,"[1]; rat, from CSF levels",crossed the blood-brain barrier
same,"expression of both MBP isoforms, lactational diet compared to NANA-deficient diet","[2]; NANA 200 mg/kg/d during lactation only, overall analysis and postnatal day 8, Tukey p<0.05",significantly increased
same,expression of 21 kDa MBP normalized to β-actin,"[2]; whole brain of pups, maternal NANA 200 mg/kg/d in diet, one-way ANOVA p=0.012",significant increase
same,expression of 18 kDa MBP normalized to β-actin,"[2]; whole brain of pups, maternal NANA 200 mg/kg/d in diet, one-way ANOVA p=0.037",significant increase
same,thickness of MBP expression in the motor pyramids,"[3]; maternal NANA 50 mg/kg/d during lactation, p=0.022",significant increase
same,maximal thickness of MBP expression in the lateral olfactory tract (LOT),"[3]; maternal NANA 200 mg/kg/d during gestation, lactation or gestation plus lactation",significant increases
same,thickness of MBP expression in the corpus callosum (CC),"[3]; maternal NANA 200 mg/kg/d during gestation, lactation or gestation plus lactation, ANOVA p<0.001",significant increases
same,thickness of MBP expression in the middle CC,[3]; [6],did not appear to change
same,thickness of MBP expression in the midline CC decussation,[3]; [6],did not appear to change
same,thickness of MBP expression in the frontal CC,"[3]; maternal NANA 25-200 mg/kg/d during gestation, p<0.001",significant increases
same,thickness of MBP expression in the LOT,"[3]; maternal NANA 25-200 mg/kg/d during gestation, p<0.05 / p<0.001",significant increases
same,thickness of MBP expression in the medial lemniscus,"[3]; maternal NANA 25-200 mg/kg/d during gestation, p<0.05 / p<0.01",significant increases
same,thickness of MBP expression in the motor pyramids,"[3]; maternal NANA 25-200 mg/kg/d during gestation, p<0.05 to p<0.001",significant increases
same,thickness of MBP expression in the medial lemniscus,[3]; maternal NANA 25-200 mg/kg/d during lactation,no significant changes
same,thickness of MBP expression in the LOT,"[3]; maternal NANA 25-200 mg/kg/d during lactation, p<0.001",significant increases
same,thickness of MBP expression in the midline CC,[3]; [7],significant increases
same,thickness of MBP expression in the rostral CC,[3]; [7],significant increases
same,thickness of MBP expression in the midline CC decussation,"[3]; maternal NANA 25-200 mg/kg/d during lactation, p<0.05 / p<0.001",significant increases
same,thickness of MBP expression in the motor pyramids,"[3]; maternal NANA during lactation, the other doses tested (25, 100, 200 mg/kg/d)",no significant changes
same,total MBP (combined 18 kDa and 21 kDa) in cerebellum,"[4]; maternal NANA 25 mg/kg/d during lactation, p<0.01",significant increase
same,total MBP (combined 18 kDa and 21 kDa) in cerebellum,"[4]; maternal NANA 100 mg/kg/d during lactation, p<0.05",significant increase
same,total MBP (combined 18 kDa and 21 kDa) in cerebellum,"[4]; maternal NANA 200 mg/kg/d during lactation, p<0.01",significant increase
same,expression of 18 kDa MBP normalized to actin in cerebellum,[4]; [8],significant increase
same,expression of 21 kDa MBP normalized to actin in cerebellum,[4]; [8],significant increase
"O=C(CO)N[C@H]1[C@H]([C@H](O)[C@H](O)CO)OC(O)(C(=O)O)C[C@@H]1O (some centres unmarked) [Neu5Gc, N-glycolylneuraminic acid]",transfer of Neu5Gc from fed dams to pups,[5],does not transfer
